Read-outs that look alike come from different tables or passages of the source.
Key:
[1] = tested on: human acute myelogenous leukemia (AML) cell line KG-1; format: in vivo
[2] = tested on: human diffuse large B-cell lymphoma cell line OCI-Ly7; format: in vivo; details: for Tumor growth delay / Tumor growth delay rate: relative tumor volume 1600%
[3] = tested on: human acute myelogenous leukemia (AML) cell line KG-1; format: in vivo; remark: listed apart in the source
[4] = tested on: human diffuse large B-cell lymphoma cell line OCI-Ly7; set-up: species or system SCID mice; details: mouse, in vivo
[5] = tested on: human diffuse large B-cell lymphoma cell line OCI-Ly7; format: in vivo
[6] = tested on: human acute myelogenous leukemia (AML) cell line KG-1; format: in vivo; remark: listed apart in the source
[7] = tested on: human diffuse large B-cell lymphoma (DLBCL) cell line OCI-Ly7; assay: In vitro cell growth inhibition test, OCI-Ly7 (cell viability, combination index); format: cell-based; details: bendamustine 0 nM
[8] = tested on: human follicular lymphoma cell line DOHH-2; assay: In vitro cell growth inhibition test (CellTiter-Fluor), DOHH-2; format: cell-based; details: DOHH-2
[9] = tested on: human breast cancer cell line MDA-MB-453; assay: In vivo antitumor effect test, MDA-MB-453 tumor, compound A and lapatinib (Example 37); set-up: species or system NOD-SCID mice; details: for Tumor growth delay / Tumor growth delay rate: relative tumor volume 200%
Experimental: The tumor volume was calculated from tumor diameters by the following formula: (Long diameter×[Short diameter]^2×0.5). Using the calculated tumor volume value, the relative tumor volume (ratio of the tumor volume on the day of measurement to the baseline tumor volume on Day 1) was calculated. […] Further, the tumor growth delay rate (% TGD) was calculated according to the following formula: % TGD={(T−C)/C}×100, Where: • T: […] relative tumor volume of the control group to reach 1600% 6) Statistical Analysis
Compound A was suspended in a 1% hypromellose solution to prepare 20 mg/mL test substance suspensions (a suspension for preparing a single administration solution and a suspension for preparing a 100 mg/kg combined administration solution). The 20 mg/mL test substance suspensions were diluted with a 1% hypromellose solution to prepare 10 mg/mL (100 mg/kg administration solution), 6 mg/mL (suspension for preparing a 30 mg/kg combined administration solution), and 3 mg/mL (30 mg/kg administration solution) test substance suspensions. Lapatinib was suspended in a 1% hypromellose solution to prepare a 20 mg/mL suspension for preparing a 100 mg/kg lapatinib combined administration solution. The 20 mg/mL suspension was diluted with a 1% hypromellose solution to prepare a 10 mg/mL suspension for 100 mg/kg single administration. The administration solution of the combination group was prepared by mixing the 6 mg/mL compound A suspension and the 20 mg/mL lapatinib suspension at 1:1, or mixing the 20 mg/mL compound A suspension and the 20 mg/mL lapatinib suspension at 1:1.
MDA-MB-453 was obtained from ATCC. […] The collected cells were suspended in serum-free RPMI 1640 medium at 1.0×10^8 cells/mL.
5-week-old female NOD-SCID mice (NOD.CB17-Prkdcscid/J, produced by Charles River Japan Co., Ltd.) were used. The female NOD-SCID mice were bred in the same manner as in Example 36. The cell suspension was inoculated at 2×10^7 cells/body into the subcutaneous space of the right axillary region of the 6-week-old NOD-SCID mice, and the mice were grouped in the same manner as in Example 36 using the tumor volume as an index.
The administration was started on the next day of the grouping (Day 2), and compound A and lapatinib were orally administered once a day for 28 consecutive days. Each group (N=8) was treated as follows. • (1) Control (solvent control) group: 1% hypromellose solution • (2) Compound A (30 mg/kg) treated group: 30 mg/kg of compound A (oral administration once a day for 28 consecutive days) • (3) Compound A (100 mg/kg) treated group: 100 mg/kg of compound A (oral administration once a day for 28 consecutive days) • (4) Lapatinib (100 mg/kg) treated group: 100 mg/kg of lapatinib (oral administration once a day for 28 consecutive days) • (5) Combination group 1: 30 mg/kg of compound A (oral administration once a day for 28 consecutive days)+100 mg/kg of lapatinib (oral administration once a day for 28 consecutive days) • (6) Combination group 2: 100 mg/kg of compound A (oral administration once a day for 28 consecutive days)+100 mg/kg of lapatinib (oral administration once a day for 28 consecutive days)

[10] = tested on: human diffuse large B-cell lymphoma cell line OCI-Ly7; format: in vivo; remark: listed apart in the source
[11] = compound A 10 mg/kg orally once a day for 14 days
[12] = compound A 30 mg/kg orally once a day for 14 days
[13] = compound A 100 mg/kg orally once a day for 14 days
[14] = compound A 30 mg/kg orally once a day for 28 days
[15] = compound A 100 mg/kg orally once a day for 28 days
[16] = compound A 30 mg/kg orally once a day for 21 days, relative tumor volume 600%

In the case of `CNc1ccc(Oc2ccc(NC(=O)c3ccc(C(F)(F)F)cc3)cn2)c(C)c1.Cl` [Compound A, N-{6-[2-methyl-4-(methylamino)phenoxy]pyridin-3-yl}-4-(trifluoromethyl)benzamide hydrochloride], the “antitumor effect on KG-1 tumor (monotherapy)” value ([1]; compound A 30 mg/kg, decitabine 1 mg/kg) is reported as “antitumor effect”, the “T/C (ratio of relative tumor volume of treated group to control group)” value ([1]; compound A monotherapy 30 mg/kg orally, daily, 21 days, Day 23) is reported as 45.2% and the “effectiveness of monotherapy (tumor growth delay)” value (“effectiveness of monotherapy” for short) ([2]; 30 or 100 mg/kg of compound A, 50 mg/kg of cyclophosphamide) is reported as “effective”. The “Median Time (time for relative tumor volume to reach 1600%)” value [2, 11] was 13.2 days, the Tumor growth delay [2, 11] was 0.5 days and the “Tumor growth delay rate” value [2, 11] was 3.5%. For the same molecule, the “Median Time (time for relative tumor volume to reach 1600%)” value [2, 12] was 23.0 days, the Tumor growth delay [2, 12] was 10.3 days and the “Median Time (time for relative tumor volume to reach 1600%)” value [2, 13] was 31.5 days. For the same molecule, the Tumor growth delay [2, 13] was 18.8 days, the “Tumor growth delay rate” value [2, 13] was 147.6% and the “antitumor effect on KG-1 tumor” value ([3]; compound A 50 mg/kg, venetoclax 50 mg/kg + decitabine 1 mg/kg) was “antitumor effect”. The “T/C (ratio of relative tumor volume of treated group to control group)” value ([3]; compound A single administration 50 mg/kg orally, daily, 14 days, Day 16) was 29.2%, the “effectiveness (tumor growth delay)” value [4] was “effective” and the “Median Time (time for relative tumor volume to reach 800%)” value ([4]; po, 30 mg/kg) was 18.2 days. For the same molecule, the Tumor growth delay ([4]; po, 30 mg/kg) was 8.3 days, the “Tumor growth delay rate” value ([4]; po, 30 mg/kg) was 83.8% and the “effectiveness of monotherapy” value ([5]; 30 mg/kg of compound A, 15 mg/kg of bendamustine) was “effective”. For the same molecule, the “Median Time (time for relative tumor volume to reach 1600%)” value [5, 12] was 23.9 days, the Tumor growth delay ([5]; compound A 30 mg/kg orally once a day for 14 days, relative tumor volume 1600%) was 8.4 days and the “antitumor effect on KG-1 tumor (monotherapy)” value ([6]; compound A 30 mg/kg, cytarabine 50 mg/kg) was “antitumor effect”. The “T/C (ratio of relative tumor volume of treated group to control group)” value ([6]; compound A monotherapy 30 mg/kg orally, daily, 14 days, Day 16) was 52.0%, the “Cell viability (ratio relative to the drug-free control)” value ([7]; compound A 0.25 nM, OCI-Ly7, 8000 cells/well) was 0.79 and the “Cell viability (ratio relative to the drug-free control)” value ([7]; compound A 0.5 nM, OCI-Ly7) was 0.76. The “Cell viability (ratio relative to the drug-free control)” value ([7]; compound A 1 nM, OCI-Ly7) was 0.61, the “Cell viability (ratio relative to the drug-free control)” value ([7]; compound A 2 nM, OCI-Ly7) was 0.50 and the “FIC (fractional inhibitory concentration)” value ([8]; bendamustine fixed at 0 nM, compound A at its IC50) was 1. For the same molecule, the “FIC (fractional inhibitory concentration)” value ([8]; bendamustine fixed at 1250 nM, compound A at its IC50) was 0.595, the “FIC (fractional inhibitory concentration)” value ([8]; bendamustine fixed at 2500 nM, compound A at its IC50) was 0.258 and the “FIC (fractional inhibitory concentration)” value ([8]; bendamustine fixed at 5000 nM, compound A at its IC50) was 0.123. The “FIC (fractional inhibitory concentration)” value ([8]; compound A fixed at 0 nM, bendamustine at its IC50) was 0, the “FIC (fractional inhibitory concentration)” value ([8]; compound A fixed at 39.1 nM, bendamustine at its IC50) was 0.103 and the “FIC (fractional inhibitory concentration)” value ([8]; compound A fixed at 78.1 nM, bendamustine at its IC50) was 0.205. For the same molecule, the “FIC (fractional inhibitory concentration)” value ([8]; compound A fixed at 156.3 nM, bendamustine at its IC50) was 0.410, the “FIC (fractional inhibitory concentration)” value ([8]; compound A fixed at 312.5 nM, bendamustine at its IC50) was 0.820 and the “effectiveness of monotherapy” value ([9]; 30 or 100 mg/kg of compound A, 100 mg/kg of lapatinib) was “effective”. The “Median Time (time for relative tumor volume to reach 200%)” value [9, 14] was 39.3 days, the Tumor growth delay [9, 14] was 16.5 days and the “Tumor growth delay rate” value [9, 14] was 72.4%. The “Median Time (time for relative tumor volume to reach 200%)” value [9, 15] was greater than 99.0 days, the Tumor growth delay [9, 15] was greater than 76.2 days and the “Tumor growth delay rate” value ([9]; compound A 100 mg/kg orally once a day for 28 days, hydrochloride, 100 mg/kg) was greater than 334.2%. The “Tumor growth delay rate” value ([9]; compound A 100 mg/kg orally once a day for 28 days, listed as compound A, hydrochloride, 100 mg/kg) was greater than 334.2%, the “effectiveness of monotherapy” value ([10]; 30 mg/kg of compound A, 10 mg/kg of rituximab) was “effective” and the “Median Time (time for relative tumor volume to reach 600%)” value ([10]; compound A 30 mg/kg orally once a day for 21 days) was 28.4 days. The Tumor growth delay [10, 16] was 12.1 days and the “Tumor growth delay rate” value [10, 16] was 73.9%.
